Data from patent publication US9216181B2 (Southwest Research Institute, priority 2011, dated 2015).

Key:
[1] = test system: BMP-2; assay: Study II real time PCR, BMP-2 up-regulation in mesenchymal stem cells; assay type: cell-based, human; settings: hMSC; for BMP-2 Fold Increase/Dose / BMP-2 fold increases (in words): 24 hour
Experimental: (§1) The testing procedure follows.
(§2) Cells based assays are done using 6 wells tissue culture plates, seeded with human mesenchymal stem cells (MSC) from Lonza, culture at 80% density. After seeding cells are treated with selected compounds at 10 μM, 5 μM and 2.5 μM for a 24 hour period, mRNA is collected using Qiagen kit RNAeasy kit and cDNA is prepared with same Qiagen kit, RT-PCR is done using kit from SABiosciences to measure gene expression for BMP2, 4 and 7 and run in Applied Biosystems Step One Plus. The protocol for mRNA isolation is described below.
(§3) Human mesenchymal stem cell growth medium passage 3 plated in a 6 well plate at 2.5×10^5 cells/well in hMSC Basal Medium+BulletKit (50 ml Growth Supplement, 10 ml L-Glutamine and 0.5 ml Gentamicin Sulfate Amphotericin-B) for 24 hrs. The compounds to be tested were added and after 24 hrs the media was aspirated, rinsed well once with PBS, and aspirated again. 350 ul of Lysis Buffer was added and the cells were stored at −20° C.
(§4) The lysate was homogenized by pipetting the lysate directly into a QIA shredder spin column placed in a 2-mL collection tube, and centrifuge for 2 min at full speed. 70% ethanol was added (1 vol. or […]) to the homogenized lysate (now at the bottom of the collection tube), and mixed well by pipetting. Up to 700 μL of the sample was transferred, including any precipitate that may have formed, to an RNeasy spin column placed in a 2-mL collection tube. This was centrifuged for 15 seconds at full speed. 700 μL of Buffer RW1 was added to the RNeasy spin column. This was centrifuged for 15 seconds at full speed to wash the spin column membrane.
(§5) 500 μL of Buffer RPE was added to the RNeasy spin column and centrifuged for 15 seconds at full speed. The flow through was discarded. 500 μL of Buffer RPE was added to the RNeasy spin column and centrifuged for 2 minutes at full speed to wash the spin column membrane. The RNeasy spin column was removed from the collection tube and the flow-through was discarded.
(§6) The RNeasy spin column was placed in a new 2-mL collection tube and centrifuged for 1 minute at full speed. The RNeasy spin column was removed from the collection tube, and the flow-through was discarded. The RNeasy spin column was placed in a new 1.5-mL collection tube. 30-50 μL of RNase-free water was added directly to the spin column membrane and this was centrifuged for 1 minute at full speed to elute the RNA.

[2] = test system: murine calvaria bone; assay: Anabolic assay using murine calvaria, histology (Study II); assay type: cell-based, mouse; settings: calvaria of 4 day old pups, 5-20 μM, day 4 and day 7, 10× microscopy
Experimental: To investigate the biological effects on bone of the compounds from the PCR assays a number of assays were performed using murine calvaria bone as follows. Following procedures similar to those outlined above in Study I, murine calvaria bone was removed from 4 day old pups form CD-1 time pregnant mice from Harlan (15 day gestation at time of arrival). The pups were decapitated with scissors after dipping the pups in 95% ethanol. The scalp was then removed. The heads were placed in a Petri dish with BGJ medium. The calvaria bones were cut using curved scissors to make a cut along the suture of the calvaria bone and the two parts were carefully removed from the brain. The calvaria were trimmed avoiding the suture area. The collected tissue was placed into media (3 bones per group) including BGJ+L-Glutamine with 1% Pen/Strep and 1% BSA. The dish including the bones was placed into a 37° C. and 5% CO2 incubator.
The selected compounds were prepared in a solution of dimethyl sulfoxide (DMSO) to form stock solutions of each compound, with the exception of terfenadine, which was prepared in ethanol. Specifically, a 10 mM stock solution was prepared for PS1, a 25 mM stock solution was prepared for carebastine and a 50 mM stock solution was prepared for ebastine, #6 terfenadine, fexofenadine and astemizole. […]

[3] = test system: BMP-4; assay: Study II real time PCR, BMP-4 up-regulation in mesenchymal stem cells; assay type: cell-based, human; settings: hMSC, 24 hour, 2.5, 5 and 10 μM tested
Experimental: as §1, §2, §3, §4, §5
The RNeasy spin column was placed in a new 2-mL collection tube and centrifuged for 1 minute at full speed. […]

[4] = test system: BMP-2; assay: Real time PCR of BMP-2 gene expression in human MSC (Cells-to-Ct); assay type: cell-based; settings: BMP-2 mRNA, hMSC, 5-10 μM, 24 hours, vs untreated; BIOMOL library (Table 2)
Experimental: Early passage human mesenchymal stem cells (MSC) were thawed from one frozen cryo-vial and seeded into two T-75 tissue culture flasks and incubated at 37° C. for 48 hours in Alpha MEM with 10% FBS. After three days and one re-feeding, the cells were trypsinized and re-suspended in pre-warmed media at 5×10^4 cells/mL to provide 5,000 cells per well in a 96 well plate and incubated overnight at 37° C. in 5% CO2.
Each well was washed in cold PBS, lysed at room temperature for five minutes, and stop reagent added to each well to stop the lysis reaction. The final lysate was kept cold at 4° C. and used immediately as the RNA template for the reverse transcription cDNA synthesis following the TAQMAN GENE EXPRESSION CELLS TO CT KIT instructions.
The cDNA synthesis was prepared on a separate sterile 96-well PCR plate and performed on the Step One Plus Real Time PCR System instrument (Applied Biosystems) with the programming set at 37° C. for 60 minutes and an inactivation hold of 95° C. for five minutes. The final cDNA reaction was kept cold and used as the template for the TAQMAN GENE Real-Time PCR step following the recommended instructions for TAQMAN GENE EXPRESSION CELLS TO CT KIT assay. […] Template cDNA's were added separately to respective individual wells in replicate samples.
The PCR was performed on the STEPONEPLUS Real-Time System instrument (Applied Biosystems). The amplification program consisted of 1 cycle of 95° C. with 10 minute hold (hot start) and followed by 50 cycles of 95° C. with 15-second annealing hold and 1-minute 60° C. specified acquisition hold.

[5] = test system: BMP-7; assay: Study II real time PCR, BMP-7 up-regulation in mesenchymal stem cells; assay type: cell-based, human; settings: hMSC
Experimental: as §1, §2, §3, §4, §5, §6

[6] = test system: BMP2; assay: Quantitative PCR (TaqMan, ΔΔCt) of BMP2 in human mesenchymal stem cells; assay type: cell-based; settings: Homo sapiens, Mesenchymal stem cells; BMP2 mRNA, hMSC, 10 μM, vs untreated, 18S reference; BIOMOL library (Table 2); read-out: q-PCR Fold increase
Experimental: Human mesenchymal stem cells (LONZA, Catalog PT2501) were maintained in Mesenchymal stem cells basal media (MSCBM CAT#PT-3238). Early passage cells were plated in triplicate at 2×10^4 cells/cm^2 using six well tissue culture plates and grown in humidified 5% CO2 at 37° C. for 24 hours. Spent media was replaced by assay media of drugs to be tested in same media as above at 10 μM final concentration. Untreated cells were used as the control group. Total RNA were prepared using either TRI Reagent (Ambion, Cat. 9738), for subsequent TaqMan gene expression qPCR of BMP2. RNA concentration and integrity was assessed by absorbance 260/280 and electrophoresis in 1% Agarose with formaldehyde loading dye. For TaqMan gene expression, cDNA was synthesized from 2 μg of total RNA using the High Capacity cDNA Reverse Transcription Kit (Applied Biosystems, Cat. 4368814). The resulting cDNA were diluted 1:100 for TaqMan and amplified by real-time quantitative PCR. Gene-specific fluorescent labeled TaqMan primers for FAM-BMP2 (Applied Biosystems, Hs00154192.m1) and TaqMan reference VIC-18S ribosomal RNA (Applied Biosystems, 4310893E) were used to target gene of interest. A cocktail of universal master mix (Applied Biosystems, 4369016) were prepared individually for both set of primers which contained Taq Polymerase, dNTPs, and buffer. Template cDNA's were added separately to respective individual wells in triplicate samples. The PCR were performed on StepOne Plus Real Time System instrument (Applied Biosystems). The amplification program consisted of 1 cycle of 95° C. with 10 minute hold (hot start) followed by 50 cycles of 95° C. with 15 second annealing hold and 1 minute 60° C. specified acquisition hold. The Ct value of endogenous reference gene (i.e. 18 s) was used to control for input RNA and then used to normalize target gene (i.e. BMP2) tested from the same cDNA sample to calculate the Δ Ct, and then calibrated to an internal reference sample. Change in gene expression was determined by the expression ΔΔCt relative method.
18 compounds were confirmed positive by the more stringent qPCR techniques. […] Included in the tables is the target or common medical use for each compounds.

[7] = test system: human mesenchymal stem cells (MSC); assay type: cell-based; set-up: key: *: Dose caused cell death; settings: 10 uM, hMSC, 24 hrs

Row | SMILES | fold change (PCR) ([1]; 24 hour, 2.5, 5 and 10 μM) | activity in bone calvaria assay / effect on BMP-2 gene expression, qualitative histology [2] | BMP-4 Fold Increase/Dose [3] | RT PCR Fold increase [4] | BMP-2 Fold Increase/Dose ([1]; 5 μM) | BMP-2 Fold Increase/Dose ([1]; 10 μM) | BMP-2 fold increases (in words) [1] | BMP-7 Fold Increase/Dose ([5]; 2.5 μM, 24 hour) | BMP-7 fold increases (in words) ([5]; 24 hour) | fold induction at 10 µM [6] | BMP-7 Fold Increase/Dose ([5]; 24 hour, 2.5, 5 and 10 μM tested, no dose stated) | cell death [7] | BMP-7 Fold Increase/Dose ([5]; 10 μM, 24 hour)
1 | CC(C)(C(=O)O)c1ccc(C(=O)CCCN2CCC(OC(c3ccccc3)c3ccccc3)CC2)cc1 [Carebastine] | ≤ 1 fold | relatively active |  |  |  |  |  |  |  |  |  |  | 
2 | COc1ccc(CCN2CCC(Nc3nc4ccccc4n3Cc3ccc(F)cc3)CC2)cc1 [Astemizole] |  |  | None | 156.2 fold | ~30 fold | ~7 fold | exhibit BMP-2 fold increases | ~8/2.5 fold | exhibit BMP-7 fold increases | 1 |  |  | 
3 | CN(C)CCC(c1ccccc1)c1ccccn1 (centres unmarked) [Pheniramine] |  |  | None |  |  | ~2/10 μM fold | exhibit BMP-2 fold increases |  |  |  | None |  | 
4 | CC(C)(C)c1ccc(C(=O)CCCN2CCC(OC(c3ccccc3)c3ccccc3)CC2)cc1 [Ebastine] |  |  | None |  |  | ~8/10 μM fold | exhibit BMP-2 fold increases |  | exhibit BMP-7 fold increases |  |  | *Ebastine | ~3/10 fold
